Data as given in publication PMC7948455, “Novel drug discovery platform for spinocerebellar ataxia, using fluorescence technology targeting β-III-spectrin” (The Journal of Biological Chemistry, 2020).
“And” between values parts separate entries of the source, which are not always exact repeats. Identical values can stand only once.

Key:
[1] = target: T1, binding of the mutant β-III-spectrin L253P ABD to F-actin (Homo sapiens, UniProt O15020, L253P); experiment: Primary live-cell FRET assay (GFP-ABD-L253P + Lifeact-mCherry) in HEK293-6E cells; assay type: cell-based; settings: for Effect of Hit compound on primary FRET: LOPAC Hits (10 μM screen, 4SD threshold, 120 min) and dose response
T1 construct: the β-III-spectrin (human) ABD residues 1 to 284; expressed in transfected cells; host or cells: HEK293-6E (pTT5 vector, transient transfection)
T1 sequence (O15020 1-284 L253P): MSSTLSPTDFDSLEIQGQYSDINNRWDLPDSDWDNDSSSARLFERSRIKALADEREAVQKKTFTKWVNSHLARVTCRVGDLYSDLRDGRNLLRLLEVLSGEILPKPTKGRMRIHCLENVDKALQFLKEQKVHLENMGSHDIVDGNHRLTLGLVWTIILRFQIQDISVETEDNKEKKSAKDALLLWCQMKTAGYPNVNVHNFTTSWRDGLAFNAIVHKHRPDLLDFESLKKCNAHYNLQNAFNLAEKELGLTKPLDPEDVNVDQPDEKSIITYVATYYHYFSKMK
Method: To develop a biosensor that monitors the binding of mutant L253P β-III-spectrin to actin filaments in live cells, a FRET approach was tested. A FRET donor construct consisting of green fluorescent protein fused to the N terminus of the mutant ABD (GFP-ABD-L253P) was coexpressed in HEK293-EBNA1-6E (HEK293-6E) cells with a FRET acceptor construct consisting of the actin-binding peptide, Lifeact, fused to the N terminus of red fluorescent protein, mCherry (Lifeact-mCherry). Lifeact is a 17 amino acid peptide derived from the yeast actin-binding protein, ABP140 ([15]). […] The cryo-EM structures of ABD L253P and Lifeact on actin indicate that the binding sites overlap on actin units. With ABD L253P and Lifeact bound on neighboring actin units, we predicted an average distance of ∼80 Å between GFP and mCherry (Fig. 1). With a known Förster distance R0 of 52.4 Å ([17]), this corresponds to FRET value of 0.07, a sufficient signal for a biosensor platform. To design a system most compatible for large production and eventual screening of 50,000+ compound libraries, we used HEK293-6E cells, a suspension cell line that yields greater levels (>threefold) of recombinant protein expression ([18], [19]).
With a constant amount of GFP-ABD-L253P expressed, increased Lifeact-mCherry expression increases FRET with an exponential plateau to 0.12 (Fig. 2A). To measure the nonspecific component of our FRET readout, we concurrently tested expression of mCherry in place of Lifeact-mCherry. For comparison, the Lifeact-mCherry and mCherry fluorescence intensity values (normalized to 1:1 GFP-ABD:Lifeact-mCherry sample) are plotted on the X-axis for samples transfected with different donor-to-acceptor DNA ratios. […] With the trade-off between high FRET and minimal nonspecific FRET, the donor:acceptor ratio 1:2 was chosen for the experiments that followed (Fig. 2A). […] Of note, we also tested the biosensor using WT-ABD, which yielded substantially lower FRET (Fig. S1), consistent with the 1000-fold decrease in affinity of WT-ABD for actin ([10]). We proceeded to test the compatibility of the GFP-ABD-L253P and Lifeact-mCherry assay for primary compound screening and the GFP-ABD-L253P and mCherry assay as a potential high-throughput counter screen.
To test the performance of the assay in HTS, the 1280 LOPAC compounds, together with 256 DMSO controls, were dispensed in 5 nl volumes into individual wells of 1536-well microplates and stored at −20 °C until use. To test the reproducibility of replicate screens on the same day, a single batch of HEK293 cells was transfected with GFP-ABD-L253P and Lifeact-mCherry. In addition, control cells were transfected with only GFP-ABD-L253P, to determine compound effect on donor-only lifetime (τD). To test reproducibility of the screens across different days, identical transfections were performed on another batch of HEK293-6E cells on a second day. Following plate thaw, 5 μl of assay cells were loaded in each well via a multidrop liquid dispenser, and a time course of compound effects (at 20, 120, and 180 min post load) on fluorescence lifetime was acquired using a fluorescence lifetime plate reader (FLT-PR). This technology has been advanced to high-density 1536-well plates in recent years for successful HTS using a range of protein biosensors including sarcoplasmic reticulum Ca-ATPase ([24], [25], [26], [27]), ryanodine receptor ([23], [28]), actin ([20]), tumor necrosis factor receptor 1 ([29], [30]), and tau ([31]).
At 2 × 10^6 cells/ml, HEK293-6E cells were transfected with GFP-ABD-L253P or GFP-ABD-WT (2.4 μg), Lifeact-mCherry (2.4–16.8 μg), mCherry (1.2–16.8 μg), and/or pTT5 (0.8–17.6 μg), as indicated, using the 293fectin protocol (Thermo Fisher Scientific) with 20 μg total DNA. Cells were transfected with either GFP-ABD-L253P or –WT, but coexpression of the WT and mutant isoform was not explored in this study. The cells were harvested 24 h later by centrifugation at 100g for 5 min and then washed twice with PBS. […]

HEK293-6E cells = experiment: Trypan blue cell viability assay; assay type: cell-based
Method: HEK293-6E cell viability was measured using trypan blue (0.03%) staining and a Countess Automated Cell counter (Invitrogen). Nontransfected HEK293-6E cells were spun at 100g for 5 min at 21 °C and resuspended in 10 ml of PBS. The centrifugation and resuspension were repeated twice more. Final cell concentration was 1 × 10^6 cells/ml. Cells were incubated with 2% DMSO or 3 to 50 μM compound (as indicated) for 3 h at room temperature (21 °C). After addition of 100 μl of 0.06% trypan blue solution in PBS, 10 μl was loaded on a slide and injected into the cell counter, and cell viability was measured.

mammalian cells = settings: cited from earlier work
[2] = target: T2, Lifeact-mCherry binding to actin (Oryctolagus cuniculus, UniProt P68135); experiment: F-actin and Lifeact-mCherry cosedimentation assay; settings: for Effect on actin-Lifeact cosedimentation: 10 μM Hit compound
T2 construct: from tissue; host or cells: actin: rabbit psoas muscle; Lifeact-mCherry: made in house in E. coli (pE-SUMOpro)
Method: (§1) Actin was purified from acetone powder derived from the psoas muscle of New Zealand white rabbit (Oryctolagus cuniculus) ([46]). Filamentous (F)-actin was stored for up to 3 days on ice before use in binding assays. Within an hour of the binding assay, the F-actin was clarified at 100,000g at 4 °C for 10 min prior to setting up binding assays. The L253P β-III-spectrin ABD was expressed in E. coli BL21(DE3) (Novagen). The ABD was purified and the His-SUMO tag proteolytically removed, as previously described ([14]), except size-exclusion chromatography was not performed due to the high purity of the ABD protein. Lifeact-mCherry protein was similarly prepared. A Bradford assay was performed to determine clarified F-actin and ABD protein concentrations.
(§2) F-actin and ABD binding assays were performed as previously described ([10]). In brief, binding assays used 1 μM ABD protein, 1 μM F-actin, and 1 to 50 μM compound (as indicated) or DMSO control for a total reaction volume of 60 μl in F-buffer containing 10 mM Tris, pH 7.5, 150 mM NaCl, 0.5 mM ATP, 2 mM MgCl2, and 1 mM DTT. Following 30 min incubation at room temperature (21 °C). F-actin was pelleted using centrifugation at 100,000g at 25 °C for 30 min. Unbound ABD in the supernatant was measured following SDS-PAGE and Coomassie blue staining in accord ([10]). In addition, control cosedimentations assays that lacked actin were performed to test if compounds cause ABD aggregation. F-actin and Lifeact-mCherry binding assays were undertaken with 2 μM Lifeact-mCherry, 30 μM F-actin, and 1 to 50 μM compound (as indicated) or DMSO control for a total reaction volume of 80 μl in F-buffer. For a no-actin binding control, an assay sample with no F-actin was also set up. Binding reactions were allowed to reach equilibrium at room temperature (21 °C) for 30 min, and then F-actin was pelleted by centrifugation at 100,000g at 25 °C for 30 min. The amount of unbound Lifeact-mCherry was sampled by loading 7 μl of spin supernatant on a low-volume black bottom 384-well plate (Greiner). Amount of mCherry was determined by acquiring fluorescence spectrum peak intensity at ∼600 nm using a spectral unmixing plate reader (Fluorescence Innovations, Inc) equipped with a 532 nm laser (Laserglow Technologies, Ontario, Canada) for excitation, 532 nm long-pass filter for emission, and PMT for emission detection. The fraction of Lifeact-mCherry bound to F-actin was determined by subtracting from one the fraction of supernatant fluorescence intensity relative to the no-actin control sample:(3) Lifeactboundfraction=1−Fcompound/DMSO/FNo−actin where Fcontrol/DMSO is the peak mCherry fluorescence of assay samples containing compound or DMSO control, and Fno-actin is the peak mCherry fluorescence of assay samples that contained no F-actin.

ABD L253P = target: T3, ABD L253P (Homo sapiens, UniProt O15020, L253P); experiment: Sedimentation of ABD L253P without actin (aggregation); settings: 10 μM Hit compound, n = 4
T3 construct: the β-III-spectrin (human) ABD residues 1 to 284; His-SUMO (cleaved yes); made in house; host or cells: E. coli BL21(DE3), vector pE-SUMOpro
T3 sequence (O15020 1-284 L253P): as above
Method: In addition to a reduction in cell viability, the primary and counter screen may be sensitive to compounds that promote ABD-L253P protein aggregation. […] Our assay measuring ABD-L253P cosedimentation with actin is not sensitive to ABD aggregation, as it is designed to work under conditions where ∼90% ABD-L253P cosediments with actin. Nevertheless, we repeated these measurements in the absence of actin.
as §2

[3] = target: T4, ABD-L253P binding to actin (Homo sapiens, UniProt O15020, L253P); experiment: F-actin and ABD cosedimentation assay; settings: 3 μM swinholide A, 50 μM tegaserod; n = 4
T4 construct: the β-III-spectrin (human) ABD residues 1 to 284; His-SUMO (cleaved yes); made in house; host or cells: E. coli BL21(DE3), vector pE-SUMOpro; actin from rabbit psoas muscle tissue
T4 sequence (O15020 1-284 L253P): as above
Method: as §1, §2

actin filaments = settings: read-out: Affinity for actin; cited from earlier work
[4] = 10 μM Hit compound, 3 h incubation

Compound	Effect of Hit compound on primary FRET [1]	Effect on actin-Lifeact cosedimentation [2]	Effect on ABD pelleting without actin (aggregation) (ABD L253P)	Effect on HEK293-6E cell viability (HEK293-6E cells; [4])	also measured
Cc1cc2c(C(C)C)c(O)c(O)c(C=O)c2c(O)c1-c1c(C)cc2c(C(C)C)c(O)c(O)c(C=O)c2c1O [gossypol]	decrease FRET		promote aggregation		Reduction of cell viability (mammalian cells; 10 μM ref 36, 37, 38): < 10%
[H]/N=C(/NCCCCC)N/N=C/c1c[nH]c2ccc(OC)cc12 [tegaserod]					Reduction of Total FRET in primary FRET assay ([1]; 50 μM tegaserod, relative to DMSO): > 50% and 83%; Effect on HEK293-6E cell viability (HEK293-6E cells; 3 μM swinholide A, 50 μM tegaserod, 3 h): greatly diminished; Decrease in cell viability (HEK293-6E cells; 50 μM tegaserod, 3 h): 92%; Effect on ABD-L253P cosedimentation with actin [3]: no significant effect; Effect on Lifeact-mCherry cosedimentation with actin ([2]; 3 μM swinholide A, 50 μM tegaserod): did not alter
GFP-ABD-L253P: green fluorescent protein fused to N terminus of the mutant β-III-spectrin ABD (L253P); FRET donor					Kd (actin filaments): 75 nM

Now from value to compound, other results behind:

Effect of Hit compound on primary FRET [1]	Effect on actin-Lifeact cosedimentation [2]	Effect on ABD pelleting without actin (aggregation) (ABD L253P)	Compound	Effect on HEK293-6E cell viability (HEK293-6E cells; [4])	also measured
decrease FRET	decreased		CCCCCCCCCCCCCCCC(=O)OC(CC(=O)[O-])C[N+](C)(C)C (racemic) [palmitoyl-DL-carnitine]	dramatically reduced	Effect on cell viability in mammalian cells (mammalian cells): reduce cell viability
decrease FRET	decreased	promote aggregation	CC(C)(Sc1ccc(CCN(CCCCC2CCCCC2)C(=O)NC2CCCCC2)cc1)C(=O)O [GW7647]	dramatically reduced	
decrease FRET		trend toward increasing	CCCc1c(-c2ccc(O)cc2)nn(-c2ccc(O)cc2)c1-c1ccc(O)cc1 [PPT]		
decrease FRET	decreased		Clc1ccc(C(c2ccc(Cl)cc2)n2cc[n+](CC(OCc3ccc(Cl)cc3Cl)c3ccc(Cl)cc3Cl)c2)cc1 (centres unmarked) [calmidazolium]	dramatically reduced	Effect on cell viability in mammalian cells (mammalian cells): reduce cell viability
